From patent USRE40086E1, “Method for treating bacterial infection with novel 7-substituted-9-substituted amino 6-demethyl-6-deoxytetracyclines” (Wyeth Holdings Corporation, priority 1991, dated 2008)
Like-named read-outs stand apart in the source and are kept apart here.

Legend:
Format in all cases: cell-based
E. coli MC4100 Tet sens. = experiment: MIC, agar dilution (Table IA); settings: unit assumed
E. coli UBMS 90-5 = experiment: MIC, agar dilution (Table IA); settings: unit assumed
E. coli #311 (MP) = experiment: MIC, agar dilution (Table IA); settings: unit assumed
[1] = tested on: S. aureus Smith (Sensitive); experiment: MIC, agar dilution; settings: S. aureus SMITH (MP); Table IA; unit assumed
[2] = tested on: S. haemolyticus AVAH 88-3; experiment: MIC, agar dilution; settings: S. hemolyticus AVHAH 88-3; Table IA; unit assumed
E. coli UBMS 89-1 (tetM) = experiment: MIC, agar dilution; settings: E. coli UBMS 89-1 TetM; Table IA; unit assumed
E. coli UBMS 90-4 (tetM) = experiment: MIC, agar dilution; settings: E. coli UBMS 90-4 TetM; Table IA; unit assumed
[3] = tested on: X. maltophilia NEMC 87210; experiment: MIC, agar dilution (Table IA); settings: unit assumed
E. faecalis 12201 = experiment: MIC, agar dilution; settings: Enterococcus 12201; Table IA; unit assumed
E. coli J3272 TetC = experiment: MIC, agar dilution (Table IA); settings: unit assumed
E. faecalis ATCC 29212 = experiment: MIC, agar dilution; settings: E. faecalis ATCC 29212; Table IA; unit assumed
S. mariescens FDOR 8733 = experiment: MIC, agar dilution (Table IA); settings: unit assumed
[4] = tested on: S. aureus IVES 1983 (meth. resistant); experiment: MIC, agar dilution; settings: S. aureus IVES 1983; Table IA; unit assumed
S. aureus ROSE (MP) = experiment: MIC, agar dilution (Table IA); settings: unit assumed
[5] = tested on: S. aureus UBMS 90-3 (Sensitive); experiment: MIC, agar dilution; settings: S. aureus UBMS 90-3; Table IA; unit assumed
[6] = tested on: S. aureus UBMS 90-1 (tetM); experiment: MIC, agar dilution; settings: S. aureus UBMS 90-1 TetM; Table IA; unit assumed
[7] = tested on: S. aureus UBMS 90-2 (tetM); experiment: MIC, agar dilution; settings: S. aureus UBMS 90-2 TetM; Table IA; unit assumed
[8] = tested on: S. aureus UBMS 88-4 (Sensitive); experiment: MIC, agar dilution; settings: S. aureus UBMS 88-4; Table IA; unit assumed
E. coli ATCC 25922 = experiment: MIC, agar dilution; settings: E. coli ATCC 25922; Table IA; unit assumed
[9] = tested on: S. aureus UBMS 88-5 (tetM); experiment: MIC, agar dilution; settings: S. aureus UBMS 88-5 TetM; Table IA; unit assumed
S. aureus NEMC 8769/89-4 = experiment: MIC, agar dilution (Table IA); settings: unit assumed
E. coli J2175 = experiment: MIC, agar dilution (Table IA); settings: unit assumed
E. coli BAJ9003 = experiment: MIC, agar dilution (Table IA)
E. coli J3272 TetD = experiment: MIC, agar dilution (Table IA); settings: unit assumed
[10] = tested on: S. aureus UBMS 88-7 (tetK); experiment: MIC, agar dilution; settings: S. aureus UBMS 88-7 TetK; Table IA; unit assumed
E. coli UBMS 88-1 (tetB) = experiment: MIC, agar dilution; settings: E. coli UBMS 88-1 TetB; Table IA; unit assumed
E. coli MC4100 TetB = experiment: MIC, agar dilution (Table IA); settings: unit assumed
[11] = tested on: E. coli UBMS 89-2 (Sensitive); experiment: MIC, agar dilution; settings: E. coli UBMS 89-2 Tet Sens.; Table IA; unit assumed
[12] = tested on: S. aureus IVES 2943 (meth. resistant); experiment: MIC, agar dilution; settings: S. aureus IVES 2943; Table IA; unit assumed
[13] = tested on: Ps. acruginosa ATCC 27853; experiment: MIC, agar dilution (Table IA); settings: unit assumed
E. coli PRP1 TetA = experiment: MIC, agar dilution (Table IA); settings: unit assumed
[14] = tested on: S. aureus ATCC 29213 (Sensitive); experiment: MIC, agar dilution; settings: S. aureus ATCC 29213; Table IA; unit assumed

Structure (SMILES)	Antibacterial activity (MIC) (E. coli MC4100 Tet sens.) [µg/mL]	Antibacterial activity (MIC) (E. coli UBMS 90-5) [µg/mL]	Antibacterial activity (MIC) (E. coli #311 (MP)) [µg/mL]	Antibacterial activity (MIC) [1] [µg/mL]	Antibacterial activity (MIC) [2] [µg/mL]	Antibacterial activity (MIC) (E. coli UBMS 89-1 (tetM)) [µg/mL]	Antibacterial activity (MIC) (E. coli UBMS 90-4 (tetM)) [µg/mL]	Antibacterial activity (MIC) [3] [µg/mL]	Antibacterial activity (MIC) (E. faecalis 12201) [µg/mL]	Antibacterial activity (MIC) (E. coli J3272 TetC) [µg/mL]	Antibacterial activity (MIC) (E. faecalis ATCC 29212) [µg/mL]	Antibacterial activity (MIC) (S. mariescens FDOR 8733) [µg/mL]	Antibacterial activity (MIC) [4] [µg/mL]	Antibacterial activity (MIC) (S. aureus ROSE (MP)) [µg/mL]	Antibacterial activity (MIC) [5] [µg/mL]	Antibacterial activity (MIC) [6] [µg/mL]	Antibacterial activity (MIC) [7] [µg/mL]	Antibacterial activity (MIC) [8] [µg/mL]	Antibacterial activity (MIC) (E. coli ATCC 25922) [µg/mL]	Antibacterial activity (MIC) [9] [µg/mL]	other results
CN(C)CC(=O)Nc1cc(N(C)C)c2c(c1O)C(=O)C1=C(O)[C@]3(O)C(=O)C(C(=O)NCN4CCCCC4)=C(O)[C@@H](N(C)C)C3CC1C2 (stereo partly drawn) [HHH, [4S-(4alpha,12aalpha)]-4,7-Bis(dimethylamino)-9-([(dimethylamino)acetyl]amino]-1,4,4a,5,5a,6,11,12a-octahydro-3,10,12,12a-tetrahydroxy-1,11-dioxo-N-(1-piperadinylmethyl)-2-naphthacenecarboxamide]	0.12	0.25	0.25	0.12	0.5	0.25	0.25	0.5	0.12	0.5	0.06	4	2	2	0.12	0.25	0.12	0.25	0.25	0.25	Antibacterial activity (MIC) (S. aureus NEMC 8769/89-4): 0.25 µg/mL; Antibacterial activity (MIC) (E. coli J2175): 0.25 µg/mL; Antibacterial activity (MIC) (E. coli BAJ9003; unit assumed): 0.03 µg/mL; Antibacterial activity (MIC) (E. coli J3272 TetD): 0.12 µg/mL; Antibacterial activity (MIC) [10]: 0.5 µg/mL; Antibacterial activity (MIC) (E. coli UBMS 88-1 (tetB)): 0.25 µg/mL; Antibacterial activity (MIC) (E. coli MC4100 TetB): 0.25 µg/mL; Antibacterial activity (MIC) [11]: 0.25 µg/mL; Antibacterial activity (MIC) [12]: 2 µg/mL; Antibacterial activity (MIC) [13]: 8 µg/mL; Antibacterial activity (MIC) (E. coli PRP1 TetA): 2 µg/mL; Antibacterial activity (MIC) [14]: 0.25 µg/mL
CN(C)CC(=O)Nc1cc(N(C)C)c2c(c1O)C(=O)C1=C(O)[C@]3(O)C(=O)C(C(=O)NCN4CCCC4)=C(O)[C@@H](N(C)C)C3CC1C2 (stereo partly drawn) [FFF, [4S-(4alpha,12aalpha)]-4,7-Bis(dimethylamino)-9-[[(dimethylamino)acetyl]amino]-1,4,4a,5,5a,6,11,12a-octahydro-3,10,12,12a-tetrahydroxy-1,11-dioxo-N-(1-pyrrolidinylmethyl)-2-naphthacenecarboxamide]	0.06	0.25	0.25	0.12	0.25	0.12	0.12	0.25	0.12	1	0.06	4	2	2	0.12	0.12	0.12	0.12	0.12	0.12	Antibacterial activity (MIC) (S. aureus NEMC 8769/89-4): 0.25 µg/mL; Antibacterial activity (MIC) (E. coli J2175): 0.25 µg/mL; Antibacterial activity (MIC) (E. coli BAJ9003): ≧0.015; Antibacterial activity (MIC) (E. coli J3272 TetD): 0.12 µg/mL; Antibacterial activity (MIC) [10]: 1 µg/mL; Antibacterial activity (MIC) (E. coli UBMS 88-1 (tetB)): 0.25 µg/mL; Antibacterial activity (MIC) (E. coli MC4100 TetB): 0.25 µg/mL; Antibacterial activity (MIC) [11]: 0.25 µg/mL; Antibacterial activity (MIC) [12]: 2 µg/mL; Antibacterial activity (MIC) [13]: 8 µg/mL; Antibacterial activity (MIC) (E. coli PRP1 TetA): 2 µg/mL; Antibacterial activity (MIC) [14]: 0.12 µg/mL
